Reference: ChEMBL document CHEMBL1151500, “Inhibition of calpain by peptidyl heterocycles” (Bioorg Med Chem Lett, 1996)

Target: T1, Calpain-1 catalytic subunit (Homo sapiens) (UniProt P07384)
T1 sequence (whole entry): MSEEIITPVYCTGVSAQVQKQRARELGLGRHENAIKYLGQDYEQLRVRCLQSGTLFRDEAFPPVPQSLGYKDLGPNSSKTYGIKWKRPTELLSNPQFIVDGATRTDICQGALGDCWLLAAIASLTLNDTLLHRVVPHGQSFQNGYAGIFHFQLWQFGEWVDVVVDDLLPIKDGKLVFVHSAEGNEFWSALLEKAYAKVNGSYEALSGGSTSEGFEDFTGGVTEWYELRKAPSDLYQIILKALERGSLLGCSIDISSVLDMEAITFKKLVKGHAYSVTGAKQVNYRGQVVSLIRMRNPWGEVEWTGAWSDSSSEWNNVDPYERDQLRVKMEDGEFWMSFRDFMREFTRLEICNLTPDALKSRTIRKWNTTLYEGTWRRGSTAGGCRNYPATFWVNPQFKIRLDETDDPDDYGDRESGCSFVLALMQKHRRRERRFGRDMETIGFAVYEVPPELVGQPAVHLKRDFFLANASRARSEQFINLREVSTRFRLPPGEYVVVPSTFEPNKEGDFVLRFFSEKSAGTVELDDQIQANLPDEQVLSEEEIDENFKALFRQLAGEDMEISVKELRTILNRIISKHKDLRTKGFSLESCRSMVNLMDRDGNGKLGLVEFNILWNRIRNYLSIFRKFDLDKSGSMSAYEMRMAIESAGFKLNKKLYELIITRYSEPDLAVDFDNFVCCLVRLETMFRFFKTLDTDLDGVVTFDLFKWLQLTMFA
Assay: Inhibitory activity against human recombinant Calpain 1 at a concentration of 10 uM

For `CC(C)C[C@H](NC(=O)OCc1ccccc1)C(=O)N[C@@H](CC(C)C)C(=O)C1N=NN=N1`, the inhibition was 11%.
`CC(C)C[C@H](NC(=O)OCc1ccccc1)C(=O)N[C@@H](CC(C)C)C(=O)c1nccn1COCC[Si](C)(C)C` was tested, and the inhibition was 0%.
With `CC(C)C[C@H](NC(=O)OCc1ccccc1)C(=O)N[C@@H](CC(C)C)C(=O)c1ncc[nH]1` the inhibition was 0%.
`CC(C)C[C@H](NC(=O)OC(C)(C)C)C(=O)N[C@@H](CC(C)C)C(=O)c1ncc[nH]1` gave an inhibition of 77%.
Work on `CC(C)C[C@H](NC(=O)OCc1ccccc1)C(=O)N[C@@H](CC(C)C)C(=O)c1nccn1Cc1ccccc1` yielded an inhibition of 39%.
`CC(C)C[C@H](NC(=O)OCc1ccccc1)C(=O)N[C@@H](CC(C)C)C(=O)N[C@@H](Cc1ccccc1)C(=O)c1nccs1` showed an inhibition of 54%.
